Here are results for eight molecules from patent US4191808A, “Method of measuring dipeptidyl-amino-peptidase activity” (Ajinomoto Co., Inc., priority 1975, dated 1980).

The target in data set [1] is T1, X-prolyl dipeptidyl-aminopeptidase in human serum (Homo sapiens, UniProt P27487).
T1 construct: Even if crude enzyme such as human serum is used as enzyme source, the activity is accurately measured; from tissue; host or cells: human serum (normal subjects and patients)
Put plainly: Direct photometric assay of substrate hydrolysis (p-nitroaniline liberated, 385 nm) with human serum as enzyme source. Format: biochemical. The following applies: for Enzyme activity (μmole/min/1 serum ± S.E.): 3 cases; for Relative enzyme activity (%) Human serum pH 7.0: pH 7.0, 0.15 M Tris-maleate buffer; for Relative enzyme activity (%) Human serum pH 7.0 / Relative enzyme activity (%) Human serum pH 8.7: glycyl-L-proline p-nitroanilide = 100; for Relative enzyme activity (%) Human serum pH 8.7: pH 8.7, 0.15 M glycine-NaOH buffer. The method, then:
The relation between the incubation time and the amount of substrate hydrolyzed was examined, glycyl-L-proline p-nitroanilide and human serum being used as substrate and enzyme source, respectively, and the assay of the substrate hydrolyzed was carried out by the following direct photometric method.
Glycyl-L-proline p-nitroanilide tosylate was dissolved in 2% non-ionic detergent (Nikkol NP-10; Nikko Chemicals, Osaka, Japan) aqueous solution in a concentration of 3 mM to prepare the substrate solution. The following four tubes were prepared:
(1) the experimental tube contained 0.5 ml of 0.15 M glycine-NaOH buffer (pH 8.7), 0.5 ml of the substrate solution, and 0.05 ml of human serum
(2) the blank tube contained 0.5 ml of the 0.15 M glycine-NaOH buffer, 0.5 ml of the substrate solution and 0.05 ml of water.
(3) the standard tube contained 0.5 ml of the buffer, 0.5 ml of the substrate and 0.05 ml of 3 mM p-nitroaniline aqueous solution.
(4) the control tube contained 0.5 ml of the buffer and 0.5 ml of the substrate.
All tubes were incubated at 37° C. for the periods listed in Table 1, and the reaction was stopped by the addition of 3.0 ml of 1M acetate buffer (pH 4.2) to every tube. To the control tube, 0.05 ml of the human serum was added after stopping the reaction. A photometer was adjusted to zero with the blank, and the absorbances of the experimental (E), control (C), and standard (S) were read at 385 nm in a cuvette with 1 cm light path. p-Nitroaniline liberated by the enzyme reaction was calculated by the equation [formula]
(§1) 3mM substrate solutions were prepared as in Example 22, various dipeptide derivatives or salts thereof being used as substrates. The relative enzyme activities toward various substrates, and the rates and optimum pHs of hydrolysis of various substrates with the enzyme were measured as in Example 22.
(§2) ^c Activities were measured at pH 7.0 in 0.15 M Trismaleate buffer or
(§3) at pH 8.7 in 0.15 M glycineNaOH buffer. The values are the mean of
The activity of X-prolyl dipeptidyl-aminopeptidase was measured as in Example 22, glycyl-L-proline p-nitroanilide and 88 normal human sera being used as substrate and enzyme, respectively.
The activity of X-prolyl dipeptidyl-aminopeptidase was measured as in Example 22, glycyl-L-proline p-nitroanilide and human sera from patients being used as substrate and enzyme sources, respectively.
The activity of X-prolyl dipeptidyl-aminopeptidase was measured as in Example 22, various X-L-prolyl p-nitroanilides, and human sera from patients being used as substrates and enzyme sources, respectively.

Data set [2] concerns purified human submaxillary enzyme (X-prolyl dipeptidyl-aminopeptidase). Put plainly: Direct photometric assay of substrate hydrolysis with purified human submaxillary enzyme. Format: biochemical. The following applies: for Optimum pH: Tris-maleate, glycine-NaOH or amidiol buffer; for Relative enzyme activity (%) Purified human submaxillary enzyme pH 7.0: pH 7.0, 0.15 M Tris-maleate buffer, glycyl-L-proline p-nitroanilide = 100; for Km: pH 7.0, Tris-maleate buffer, mean of duplicate experiments. Here is the method: as §1
^a Activities were measured in 0.15 M Trismaleate buffer at pH 5.6-8.
and in 0.15 M glycineNaOH buffer at pH 8.2-9.4, purified human
submaxillary enzyme being used. For Lalanyl-L-proline pnitroanilide,
amidiol buffer were used instead of glycine buffer, since glycine buffer
interfered the photometry at pH 9-10.
^b Km values were measured at 7.0 in Trismaleate buffer, purified
human submaxillary enzyme being used. The values are the mean of duplicat
as §2, §3
^d The purified enzyme was obtained by the following method; The
enzyme was solubilized from the microsomal fraction by autodigestion, and
subsequently purified by (NH4)2 SO4 fractionation followed
by Sephadex G200 chromatography.

Data set [3] in a line: Time for perfect dissolution in water with stirring. It is filed as physicochemical. Conditions: 0.23 mg in 100 ml water with stirring. The method, then:
0.23 mg of crystalline glycyl-L-proline p-nitroanilide tosylate was dissolved in 100 ml water with stirring. It took ca. 30 minutes at 20° C. and ca. 18 minutes at 30° C. for perfect dissolution.
On the other hand, 0.23 mg of porous glycyl-L-proline p-nitroanilide tosylate, which was prepared by freezing […]. mole aqueous solution of the same at -40° C. and then drying the freezed solid at 0.05 mmHg, was dissolved in 100 ml water with stirring as in the above procedure. It only took ca. 10 seconds at 20° C. and ca. 5 seconds at 30° C. for perfect dissolution.

Data set [4] concerns the target T1, X-prolyl dipeptidyl-aminopeptidase in human serum. Put plainly: Azo-coupling assay of substrate hydrolysis (548 nm) with human serum as enzyme source. It is filed as biochemical. Conditions: 37° C., 30 minutes, pH 8.7. Here is the method: The relation between the amount of enzyme and the amount of substrate hydrolyzed was examined, glycyl-L-proline p-nitroanilide tosylate and human serum being used as substrate and enzyme source, respectively, and the assay of the substrate hydrolyzed being carried out by the following azo-coupling method.
The following tubes were prepared: (1) the experimental tube contained 1.0 ml of 0.15 M glycine-NaOH buffer (pH 8.7), 1.0 ml of the substrate solution prepared in Example 22, and the volume listed in table 2 of human serum.
(2) the control tube contained 1.0 ml of the glycine-NaOH buffer, and 1.0 ml of the substrate solution.
Both experimental and control tubes were incubated at 37° C. for 30 minutes, and 0.1 ml of the serum was added to the control tube. The reaction was stopped by adding 0.4 ml of 30% perchloric acid aqueous solution. After centrifuging at 3000 rpm for 10 minutes, each 0.5 ml of the supernatant was transferred to another tube; besides 0.1 ml of […] p-nitroaniline aqueous solution and 2.4 ml of 30% perchloric acid solution were added to the standard tube, and 2.5 ml of the perchloric acid solution was added to the blank tube.
To all the four tubes, 0.5 ml of 0.2% sodium nitrite aqueous solution at 4° C., and they were kept at 4° C. for 10 minutes. Then, 0.5 ml of freshly prepared 0.5% ammonium sulfamate aqueous solution was added. After 2 minutes, 1.0 ml of 0.05% N-(1-naphthyl) ethylenediamine solution was added and the mixtures were incubated at 37° C. for 30 minutes in the dark.
A photometer was adjusted to zero with the blank, and the absorbances of the experimental (E), control (C), and standard (S) were read at 548 nm.
p-Nitroaniline formed enzymically was calculated by the equation: [formula] the volume of […] p-nitroaniline aqueous solution used in the standard tube (ml)).

Setting [5] is: human sera from patients, Gastric Cancer.
Setting [6] is: human sera from patients, Hepatitis.

Usually Km stands for the substrate concentration at which the rate is half of its maximum.

Peptide text beside a SMILES is read from it. * marks the point of attachment. pNA = O=[N+]([O-])c1ccc(N*)cc1

T1 sequence (P27487 39-766 limits assumed): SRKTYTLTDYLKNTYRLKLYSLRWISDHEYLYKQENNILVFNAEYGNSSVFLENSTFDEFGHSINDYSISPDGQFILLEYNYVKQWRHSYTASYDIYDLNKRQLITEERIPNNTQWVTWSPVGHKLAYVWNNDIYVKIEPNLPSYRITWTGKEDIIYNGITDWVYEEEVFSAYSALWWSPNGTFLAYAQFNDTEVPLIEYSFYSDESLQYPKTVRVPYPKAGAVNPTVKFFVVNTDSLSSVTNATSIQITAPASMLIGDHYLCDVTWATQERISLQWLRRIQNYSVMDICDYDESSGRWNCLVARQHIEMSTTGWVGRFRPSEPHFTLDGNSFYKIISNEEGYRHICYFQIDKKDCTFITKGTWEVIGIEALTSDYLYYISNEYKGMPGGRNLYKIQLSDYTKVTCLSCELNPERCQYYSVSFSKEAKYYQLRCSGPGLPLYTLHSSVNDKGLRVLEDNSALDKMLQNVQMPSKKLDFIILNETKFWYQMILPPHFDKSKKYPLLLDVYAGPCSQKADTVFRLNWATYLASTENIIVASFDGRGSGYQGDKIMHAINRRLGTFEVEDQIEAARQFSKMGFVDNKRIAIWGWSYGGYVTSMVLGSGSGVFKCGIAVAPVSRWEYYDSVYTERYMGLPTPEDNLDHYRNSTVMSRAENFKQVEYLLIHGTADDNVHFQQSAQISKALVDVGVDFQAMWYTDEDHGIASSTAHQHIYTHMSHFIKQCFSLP

Turning to `C[C@H](N)C(=O)N1CCC[C@H]1C(=O)Nc1ccc([N+](=O)[O-])cc1.Cl` [L-alanyl-L-proline p-nitroanilide, L-Alanyl-L-proline p-nitroanilide hydrochloride] (H-Ala-Pro-pNA), in data set [1] (setting [5]), the “Enzyme activity (μmole/min/1 serum ± S.E.)” value is reported as 18.5 ± 1.9 μmole/min/1 serum. Moreover, the “Enzyme activity (μmole/min/1 serum ± S.E.)” value in data set [1] (setting [6]) is listed as 99.5 ± 17.0 μmole/min/1 serum. Also, the “Enzyme activity (μmole/min/1 serum ± S.E.)” value in data set [1] (human sera, Normal (control)) is 36.6 ± 9.6 μmole/min/1 serum. Further, in data set [1] (human serum), the “Relative enzyme activity (%) Human serum pH 7.0” value is listed as 83% and the “Relative enzyme activity (%) Human serum pH 8.7” value was 75%. Besides, in data set [2], the “Optimum pH” value was 8.5-8.7, the “Relative enzyme activity (%) Purified human submaxillary enzyme pH 7.0” value turned out to be 86% and the Km was 14 µM.

`Cc1ccc(S(=O)(=O)O)cc1.Cc1ccc(S(=O)(=O)O)cc1.N=C(N)NCCC[C@H](N)C(=O)N1CCC[C@H]1C(=O)Nc1ccc([N+](=O)[O-])cc1` [L-arginyl-L-proline p-nitroanilide, L-Arginyl-L-proline p-nitroanilide ditosylate] (H-Arg-Pro-pNA): the “Enzyme activity (μmole/min/1 serum ± S.E.)” value in data set [1] (setting [5]) amounted to 6.0 ± 0.7 μmole/min/1 serum. In data set [1] (setting [6]), the “Enzyme activity (μmole/min/1 serum ± S.E.)” value was found to be 35.5 ± 6.8 μmole/min/1 serum. Further, in data set [1] (human sera, Normal (control)), the “Enzyme activity (μmole/min/1 serum ± S.E.)” value was found to be 13.8 ± 3.6 μmole/min/1 serum. Also, in data set [1] (human serum), the “Relative enzyme activity (%) Human serum pH 7.0” value was 86% and the “Relative enzyme activity (%) Human serum pH 8.7” value is 55%. In data set [2], the “Optimum pH” value is given as 7.8-8.0, the “Relative enzyme activity (%) Purified human submaxillary enzyme pH 7.0” value came out at 94% and the Km was found to be 230 µM.

`N[C@@H](CC(=O)O)C(=O)N1CCC[C@H]1C(=O)Nc1ccc([N+](=O)[O-])cc1` [L-aspartyl-L-proline p-nitroanilide, L-Aspartyl-L-proline p-nitroanilide] (H-Asp-Pro-pNA): in data set [1] (setting [5]), the “Enzyme activity (μmole/min/1 serum ± S.E.)” value is given as 17.6 ± 1.6 μmole/min/1 serum. In addition, the “Enzyme activity (μmole/min/1 serum ± S.E.)” value in data set [1] (setting [6]) is listed as 102.5 ± 17.5 μmole/min/1 serum. For the same molecule, in data set [1] (human sera, Normal (control)), the “Enzyme activity (μmole/min/1 serum ± S.E.)” value was 37.7 ± 9.0 μmole/min/1 serum. In data set [1] (human serum), the “Relative enzyme activity (%) Human serum pH 7.0” value was determined as 34% and the “Relative enzyme activity (%) Human serum pH 8.7” value is 28%. In addition, in data set [2], the “Optimum pH” value is recorded as 8.5-8.7, the “Relative enzyme activity (%) Purified human submaxillary enzyme pH 7.0” value was 37% and the Michaelis-Menten constant (Km) was 81 µM.

In the case of `N[C@@H](CCC(=O)O)C(=O)N1CCC[C@H]1C(=O)Nc1ccc([N+](=O)[O-])cc1` [L-glutamyl-L-proline p-nitroanilide, L-Glutamyl-L-proline p-nitroanilide] (H-Glu-Pro-pNA), the “Enzyme activity (μmole/min/1 serum ± S.E.)” value in data set [1] (setting [5]) was determined as 13.9 ± 1.3 μmole/min/1 serum. In addition, the “Enzyme activity (μmole/min/1 serum ± S.E.)” value in data set [1] (setting [6]) was determined as 74.8 ± 17.6 μmole/min/1 serum. In data set [1] (human sera, Normal (control)), the “Enzyme activity (μmole/min/1 serum ± S.E.)” value worked out at 27.5 ± 7.5 μmole/min/1 serum. For the same molecule, in data set [1] (human serum), the “Relative enzyme activity (%) Human serum pH 7.0” value was 54% and the “Relative enzyme activity (%) Human serum pH 8.7” value is recorded as 37%. Also, in data set [2], the “Optimum pH” value is reported as 8.5-8.7, the “Relative enzyme activity (%) Purified human submaxillary enzyme pH 7.0” value is recorded as 58% and the Km is 23 µM.

With `Cc1ccc(S(=O)(=O)O)cc1.Cc1ccc(S(=O)(=O)O)cc1.NCCCC[C@H](N)C(=O)N1CCC[C@H]1C(=O)Nc1ccc([N+](=O)[O-])cc1` [L-lysyl-L-proline p-nitroanilide, L-Lysyl-L-proline p-nitroanilide ditosylate] (H-Lys-Pro-pNA), in data set [1] (setting [5]), the “Enzyme activity (μmole/min/1 serum ± S.E.)” value was determined as 8.2 ± 0.8 μmole/min/1 serum. Moreover, in data set [1] (setting [6]), the “Enzyme activity (μmole/min/1 serum ± S.E.)” value was found to be 49.7 ± 10.2 μmole/min/1 serum. For the same molecule, the “Enzyme activity (μmole/min/1 serum ± S.E.)” value in data set [1] (human sera, Normal (control)) is 18.2 ± 4.7 μmole/min/1 serum. Besides, in data set [1] (human serum), the “Relative enzyme activity (%) Human serum pH 7.0” value is recorded as 122% and the “Relative enzyme activity (%) Human serum pH 8.7” value turned out to be 71%. Further, in data set [2], the “Optimum pH” value was 8.5-8.7, the “Relative enzyme activity (%) Purified human submaxillary enzyme pH 7.0” value is recorded as 121% and the Michaelis-Menten constant (Km) is 120 µM.

Consider `Br.O=C(Nc1ccc([N+](=O)[O-])cc1)[C@@H]1CCCN1` [L-proline p-nitroanilide, L-Proline p-nitroanilide hydrobromide, reference compound], for which, in data set [1] (human serum), the “rate of hydrolysis by human serum, as % of hydrolysis of glycyl-L-proline p-nitroanilide” value amounted to 0.7%.

On to `Cc1ccc(S(=O)(=O)O)cc1.NCC(=O)N1CCC[C@H]1C(=O)Nc1ccc([N+](=O)[O-])cc1` [glycyl-L-proline p-nitroanilide tosylate, Glycyl-L-proline p-nitroanilide tosylate] (H-Gly-Pro-pNA), for which the “time for perfect dissolution” value is listed as “ca. 30 minutes” in data set [3] (20° C., listed as crystalline glycyl-L-proline p-nitroanilide tosylate) and “ca. 18 minutes” in data set [3] (30° C., listed as crystalline glycyl-L-proline p-nitroanilide tosylate). For the same molecule, the “Amount of p-nitroaniline formed” value amounted to 14.24 n mole in data set [4] (volume of serum 0.01 ml); 32.91 n mole in data set [4] (volume of serum 0.02 ml); 45.89 n mole in data set [4] (volume of serum 0.03 ml); 62.50 n mole in data set [4] (volume of serum 0.04 ml); 82.44 n mole in data set [4] (volume of serum 0.05 ml); 155.06 n mole in data set [4] (volume of serum 0.10 ml).

For the molecule `Cc1ccc(S(=O)(=O)O)cc1.NCC(=O)N1CCC[C@H]1C(=O)Nc1ccc([N+](=O)[O-])cc1` [glycyl-L-proline p-nitroanilide tosylate] (H-Gly-Pro-pNA), the “time for perfect dissolution” value was “ca. 10 seconds” in data set [3] (20° C., tosylate) and “ca. 5 seconds” in data set [3] (30° C., tosylate).
